Some test systems named below: 786-0; HCT-15; HOP-62; HT-29; IGROV-1; MOLT-4; Malme-3M; NCI-H23; OVCAR-5; OVCAR-8; SK-OV-3; SN12C; SW-620; T47D; TK-10; UACC-257; UACC-62; A498; MDA-N; SF-295.
Experiment in all cases: NCI tumour cell line growth inhibition, 48 h

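Results reflect a 48-hour exposure of cells in 96-well plates to compound at five concentrations. GI50 = concentration required for 50% inhibition of growth.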 Active and inactive are the calls of the source. Cut-off read from the data, not from the text of the source: active = GI50 up to about 1.1 µM and inactive = higher.

The record followed here is ChEMBL document CHEMBL1201862, “PubChem BioAssay data set” (2004).

Turning to `CCCCn1c(C)c(C)c2c1NN=C(C#N)S2(=O)=O`, the GI50 in the experiment on 786-0 was > 100 µM (inactive); in the experiment on HCT-15, more than 100 µM; with HOP-62, > 100 µM (inactive); in the experiment on HT-29, > 100 µM (inactive); in the experiment with IGROV-1, > 100 µM (inactive); in the experiment with MOLT-4, > 100 µM (inactive). Further, the GI50 in the experiment on Malme-3M, in the experiment on NCI-H23, in the experiment with OVCAR-5, with OVCAR-8, in the experiment on SK-OV-3 and with SN12C was > 100 µM (inactive) throughout. Moreover, the GI50 in the experiment with SW-620, in the experiment on T47D, in the experiment with TK-10, in the experiment on UACC-257 and in the experiment on UACC-62 was > 100 µM (inactive) throughout.

In the case of `CCOC(=O)CCC(NC(=O)C(CCC(=O)OCC)NC(=O)C(Cc1ccc([N+](=O)[O-])cc1)NC(C)=O)C(=O)NNC(=O)OC(C)(C)C` (stereo unspecified), the GI50 in the experiment on 786-0 is > 100 µM (inactive); in the experiment with A498, > 100 µM (inactive); in the experiment with HCT-15 it was more than 100 µM; in the experiment with HOP-62, > 100 µM (inactive); in the experiment on HT-29 it was > 100 µM (inactive); with IGROV-1, > 100 µM (inactive). For the same compound, the GI50 is > 100 µM (inactive) in the experiment with MDA-N; > 100 µM (inactive) in the experiment with MOLT-4; > 100 µM (inactive) with Malme-3M; 65.6 µM (inactive) in the experiment on NCI-H23; > 100 µM (inactive) in the experiment on OVCAR-5; > 100 µM (inactive) with OVCAR-8. Moreover, the GI50 is > 100 µM (inactive) with SN12C; > 100 µM (inactive) in the experiment on SW-620; 37.3 µM (inactive) with T47D; > 100 µM (inactive) with TK-10; > 100 µM (inactive) in the experiment on UACC-257; > 100 µM (inactive) in the experiment on UACC-62.

Consider `COc1ccc(C(=O)c2sc(Nc3ccccc3)nc2N)cc1`, for which the GI50 in the experiment on 786-0 is 13.1 µM (inactive); with A498, > 100 µM (inactive); in the experiment with HCT-15, 3.84 µM; in the experiment with HOP-62 it was 21 µM (inactive); in the experiment on HT-29 it was > 100 µM (inactive); with IGROV-1, 14.3 µM (inactive). The GI50 with MOLT-4 was 2.16 µM (inactive); in the experiment on Malme-3M, > 100 µM (inactive); in the experiment with NCI-H23, > 100 µM (inactive); with OVCAR-5 it was > 100 µM (inactive); with OVCAR-8, 29 µM (inactive); in the experiment with SF-295 it was 32.4 µM (inactive). Further, the GI50 was 26.9 µM (inactive) with SK-OV-3; > 60.5 µM (inactive) in the experiment on SN12C; 2.69 µM (inactive) in the experiment on SW-620; > 100 µM (inactive) with T47D; > 55.7 µM (inactive) with TK-10; > 100 µM (inactive) in the experiment with UACC-257. For the same compound, the GI50 with UACC-62 is > 100 µM (inactive).

As to `COCOc1cc(OC)ccc1C/C(=N/O)C(=O)OC`, the GI50 is > 100 µM (inactive) with 786-0; more than 100 µM in the experiment on HCT-15; > 100 µM (inactive) in the experiment on HOP-62; > 100 µM (inactive) in the experiment with HT-29; > 100 µM (inactive) in the experiment with IGROV-1; > 100 µM (inactive) in the experiment with MDA-N. The GI50 in the experiment with MOLT-4, in the experiment on Malme-3M, in the experiment on NCI-H23, in the experiment on OVCAR-5, in the experiment with OVCAR-8 and in the experiment on SF-295 was > 100 µM (inactive) each time. The GI50 in the experiment with SK-OV-3, in the experiment with SN12C, with SW-620, in the experiment with T47D, in the experiment on TK-10 and in the experiment on UACC-257 was > 100 µM (inactive) throughout. In the experiment on UACC-62, the GI50 is > 100 µM (inactive).

In the case of `O=C(CC(=O)n1nc(-c2ccccc2)c(/N=N/c2ccccc2C(=O)O)c1-c1ccccc1)Nc1ccc(Cl)cc1`, the GI50 in the experiment with 786-0 is 36.1 µM (inactive); in the experiment with HCT-15 it was 26.9 µM; in the experiment with HOP-62, 19.6 µM (inactive); in the experiment on HT-29, 34.2 µM (inactive); with IGROV-1, 1.5 µM (inactive); with MDA-N, 36.1 µM (inactive). Also, the GI50 in the experiment on MOLT-4 was 5.57 µM (inactive); with Malme-3M it was 75 µM (inactive); in the experiment with NCI-H23 it was 20.5 µM (inactive); with OVCAR-5, 43 µM (inactive); in the experiment on OVCAR-8 it was 36.8 µM (inactive); with SW-620, 63.8 µM (inactive). Besides, the GI50 was 9.77 µM (inactive) in the experiment on T47D, > 100 µM (inactive) in the experiment with TK-10, 32 µM (inactive) with UACC-257 and 77.1 µM (inactive) in the experiment on UACC-62.

For `CC(=O)OCC(C)C1=C(OC(C)=O)C(=O)C2(C)C/C=C(/C)CC/C=C(\C)CCC(OC(C)=O)C(C)CCC12` (stereo unspecified), the GI50 is 13.7 µM (inactive) with 786-0; 16.9 µM in the experiment with HCT-15; 14.2 µM (inactive) in the experiment with HOP-62; 17.8 µM (inactive) in the experiment with HT-29; 14.4 µM (inactive) in the experiment with IGROV-1; 17.1 µM (inactive) with MDA-N. The GI50 with MOLT-4 is 12.9 µM (inactive); in the experiment with OVCAR-5, 12.8 µM (inactive); with OVCAR-8, 19.1 µM (inactive); with SF-295 it was 15.8 µM (inactive); in the experiment with SN12C it was 20.1 µM (inactive); in the experiment with SW-620, 19.5 µM (inactive). Moreover, the GI50 with T47D was 16.1 µM (inactive); with TK-10, 19.6 µM (inactive); with UACC-257, 17.5 µM (inactive); in the experiment on UACC-62, 14.4 µM (inactive).

Regarding `Cn1ccnc1S/C(=C\C=C(C#N)C#N)c1ccc(Cl)cc1`, the GI50 in the experiment on 786-0 was 1.33 µM (inactive); with A498 it was 1.27 µM (inactive); with HCT-15, 2.52 µM; in the experiment on HOP-62, 4.17 µM (inactive); in the experiment on HT-29, 1.67 µM (inactive); in the experiment with IGROV-1, 2.69 µM (inactive). Besides, the GI50 in the experiment on MOLT-4 is 1.18 µM (inactive); in the experiment with Malme-3M, 1.04 µM (active); with NCI-H23, 1.61 µM (inactive); with OVCAR-5, 2.31 µM (inactive); in the experiment with OVCAR-8 it was 1.12 µM (active); in the experiment on SF-295 it was 2.87 µM (inactive). Further, the GI50 with SK-OV-3 is 8.07 µM (inactive); in the experiment with SN12C, 1.09 µM (active); in the experiment on SW-620, 0.303 µM (active); in the experiment with T47D it was 4.42 µM (inactive); in the experiment on TK-10 it was 0.492 µM (active); in the experiment with UACC-257, 2.1 µM (inactive). Further, the GI50 in the experiment on UACC-62 was 2.34 µM (inactive).

With `COc1cc(OC)c(C2c3cc4c(cc3OC(N3CCOCC3)C2C)OCO4)c(OC)c1` (stereo unspecified), the GI50 in the experiment with 786-0 is 40.7 µM (inactive); in the experiment on HCT-15, 17.4 µM; in the experiment on HOP-62, > 100 µM (inactive); in the experiment on HT-29 it was 21.9 µM (inactive); with IGROV-1 it was 22.1 µM (inactive); in the experiment with MDA-N, 72.6 µM (inactive). Besides, the GI50 is 21.4 µM (inactive) in the experiment with MOLT-4; > 100 µM (inactive) in the experiment with NCI-H23; 65.5 µM (inactive) in the experiment with OVCAR-5; 43.6 µM (inactive) in the experiment on OVCAR-8; 14.7 µM (inactive) in the experiment with SF-295; 67 µM (inactive) with SN12C. Besides, the GI50 with SW-620 was 23.4 µM (inactive); with T47D, 17.7 µM (inactive); in the experiment with TK-10 it was > 100 µM (inactive); in the experiment with UACC-257, 78.7 µM (inactive); with UACC-62 it was 29.9 µM (inactive).

Turning to `Cc1cc(C)nc(NS(=O)(=O)c2ccc(NNc3c4ccccc4nc4c(C(=O)Nc5ccc(S(=O)(=O)Nc6ncccn6)cc5)cccc34)cc2)n1`, the GI50 was 39.3 µM (inactive) in the experiment on 786-0; 32.7 µM in the experiment on HCT-15; 33.5 µM (inactive) with HOP-62; 27.9 µM (inactive) with HT-29; 35 µM (inactive) with IGROV-1; 31.1 µM (inactive) in the experiment with MDA-N. The GI50 in the experiment with MOLT-4 is 32.5 µM (inactive); with Malme-3M it was 26.7 µM (inactive); in the experiment with NCI-H23, 23 µM (inactive); with OVCAR-5, 16.4 µM (inactive); in the experiment with OVCAR-8, 26.2 µM (inactive); in the experiment on SF-295 it was 32.4 µM (inactive). Further, the GI50 in the experiment with SK-OV-3 was 31.5 µM (inactive); with SN12C, 20.4 µM (inactive); with SW-620, 21.6 µM (inactive); in the experiment with T47D, 26.1 µM (inactive); in the experiment on TK-10, 50.9 µM (inactive); in the experiment on UACC-257, 33.7 µM (inactive). Further, the GI50 in the experiment with UACC-62 is 25.2 µM (inactive).

Regarding `O=C1Nc2ccccc2C(=O)/C1=C/NC(=S)NCc1ccccc1`, the GI50 in the experiment on 786-0, in the experiment on HOP-62, in the experiment with HT-29, with IGROV-1, with MDA-N and in the experiment with MOLT-4 was > 100 µM (inactive) each time. Also, the GI50 with NCI-H23, in the experiment with OVCAR-5, in the experiment on OVCAR-8, in the experiment with SF-295, with SK-OV-3 and in the experiment on SN12C was > 100 µM (inactive) each time. In addition, the GI50 in the experiment on SW-620, in the experiment on T47D, with TK-10, with UACC-257 and in the experiment on UACC-62 was > 100 µM (inactive) in each case.

On to `CC(C)C(NCc1c(O)ccc2c(-c3ccccc3)cc(=O)oc12)C(=O)O` (stereo unspecified), for which the GI50 in the experiment on 786-0 is > 100 µM (inactive); in the experiment with HCT-15, more than 100 µM; with HOP-62, > 100 µM (inactive); with HT-29 it was > 100 µM (inactive); with IGROV-1, > 100 µM (inactive); in the experiment with MDA-N, > 100 µM (inactive). Moreover, the GI50 in the experiment with MOLT-4, in the experiment on Malme-3M, in the experiment with NCI-H23, in the experiment with OVCAR-5, in the experiment on OVCAR-8 and with SF-295 was > 100 µM (inactive) throughout. For the same compound, the GI50 in the experiment with SK-OV-3, with SN12C, in the experiment on SW-620, in the experiment on T47D, with TK-10 and in the experiment on UACC-257 was > 100 µM (inactive) each time. In addition, in the experiment with UACC-62, the GI50 was > 100 µM (inactive).
